Here are results for 9 molecules from patent US20230248723A1, “PYRROLO[2,3-B]PYRAZINE COMPOUNDS AS CCCDNA INHIBITORS FOR THE TREATMENT OF HEPATITIS B VIRUS (HBV) INFECTION” (Hoffmann-La Roche Inc., priority 2017, published 2023).

Each structure is given as a SMILES string. Read-outs that look alike come from different tables or passages of the source. Some results are limits rather than exact numbers.

For orientation: IC50 means the concentration needed to halve the response being measured.

Assay type in all cases: cell-based
One series deals with HBeAg. The series can be described thus: HBeAg, multiplex assay, HBV-infected PHH. Conditions: for IC50: Hepatitis B virus, read-out: HBeAg IC50 (μM) Median, PHH, patient-derived HBV (GT D). Here is the method: (§1) Fresh primary human hepatocytes (PXB-PHH) harvested from humanized mice (uPA/SCID mice)—herein called PHH—were obtained from PhoenixBio Co., Ltd (Japan). Cells were seeded on a collagen I-coated plate at the following cell density: 35,000 cells/well (384-well), 70,000 cells/well (96-well), or, 400,000 cells/well (24-well) in modified hepatocyte clonal growth medium (dHCGM). dHCGM is a DMEM medium containing 100 U/ml Penicillin, 100 μg/ml Streptomycin, 20 mM Hopes, 44 mM NaHCO3, 15 μg/ml L-proline, 0.25 μg/ml insulin, 50 nM Dexamethazone, 5 ng/ml EGF, 0.1 mM Asc-2P, 2% DMSO and 10% FBS (Ishida et al., 2015). Cells were cultured at 37° C. incubator in a humidified atmosphere with 5% CO2. Culture medium was replaced 24 h post-plating and every 2 days until harvest.
(§2) Following 4 day of maturation with 1 μM MB-1, HLC were incubated with HBV (purified from CHB individuals) at multiplicity of infection (MOI) 10-40 without PEG for 24 hr; virus inoculum was removed the following day. […] Compound treatment in HLC and PHH was started at day 3 post infection. Compound (in powder) was dissolved in DMSO; the final concentration of DMSO added to cells is 1%. Fresh compound was replenished every 2 day until cells were harvested at day 10 (PHH), or day 14 (HLC). Compound effect on HBV and cellular toxicity was measured by multiplex assay (HBsAg, HBeAg, albumin), branched DNA (pgRNA), or digital PCR (cccDNA) and depicted as % of inhibition compared to DMSO control. Graphs were prepared using Spotfire software.
(§3) A custom, Luminex-based multiplex assay that simultaneously measured HBeAg, albumin, and HBsAg was developed by Radix BioSolutions (Georgetown, Tex.). This is a sandwich immunoassay; each capture antibody was coupled with xMAP™ Luminex magnetic beads. The dynamic ranges of analyte detection are as follows: HBeAg (1-316 ng/ml), albumin (3.1-10,000 ng/ml), and HBsAg (0.1-100 ng/ml) with coefficient variant (CV) […]. Samples were read on FlexMAP 3D (Luminex) and analyzed by Genedata software.

Series [1] deals with albumin (secreted, cellular toxicity marker). As to the kind of experiment: Albumin (in vitro cellular tox marker), multiplex assay, PHH. Particulars: human, primary human hepatocytes (PXB-PHH) infected with HBV, patient-derived HBV (GT D), read-out: In vitro tox albumin IC50 (μM) Median. Here is the method:
as §1, §2, §3

For another series, the system named is HBsAg. As to the kind of experiment: HBsAg, multiplex assay, HBV-infected PHH. Particulars: for IC50: Hepatitis B virus, read-out: HBsAg IC50 (μM) Median, PHH, patient-derived HBV (GT D). Here is the method:
as §1, §2, §3

The subject of the next series is cccDNA. The series can be described thus: cccDNA assay (digital PCR), HBV-infected PHH. Particulars: for IC50: Hepatitis B virus, patient-derived HBV (GT D), read-out: cccDNA IC50 (μM) Median. Here is the method:
as §1
Following 4 day of maturation with 1 μM MB-1, HLC were incubated with HBV (purified from CHB individuals) at multiplicity of infection (MOI) 10-40 without PEG for 24 hr; virus inoculum was removed the following day. HBV infection in PHH was performed at MOI 40+4% PEG. Compound treatment in HLC and PHH was started at day 3 post infection. Compound (in powder) was dissolved in DMSO; the final concentration of DMSO added to cells is 1%. Fresh compound was replenished every 2 day until cells were harvested at day 10 (PHH), or day 14 (HLC). Compound effect on HBV and cellular toxicity was measured by multiplex assay (HBsAg, HBeAg, albumin), branched DNA (pgRNA), or digital PCR (cccDNA) and depicted as % of inhibition compared to DMSO control. Graphs were prepared using Spotfire software.
HBV-infected cells (in 384- or 96-well plate) were lysed with Cells-to-CT Lysis Reagents according to manufacturer's instruction (Thermo Scientific). To remove excess of RC-DNA, samples were digested with T5 exonuclease (10 U) (New England Biolabs), at 37° C. for 1 hr; enzyme was inactivated by heating the samples at 80° C. for 15 min. DNA samples (1.2 μl) were added into the digital PCR Master Mix (QuantStudio Digital PCR Kit, Thermo Scientific) containing cccDNA primers 5′-[…] (forward), 5′-[…] (reverse), and […] (probe) (Werle-Lapostolle et al., 2004) in a total volume 5 μl, and loaded into dPCR array using AccuFill System (AB). Each sample was loaded into 4 subarrays/256 through-holes. Digital PCR assay was run on QuantStudio 12K Flex (AB) and data was analyzed by Digital Suite Software (AB).

A further series has as its system pgRNA. The series can be described thus: pgRNA assay (branched DNA), HBV-infected PHH. Conditions: patient-derived HBV (GT D), read-out: pgRNA IC50 (μM) Median. Here is the method: as §1, §2
Levels of pgRNA in infected cells (96-well plate) were measured using QuantiGene Singleplex 2.0 assay (Affymetrix), a hybridization-based assay that utilizes the xMAP™ Luminex magnetic beads and branched DNA (bDNA) signal amplification technology. The assay is performed in 96-well plate according to manufacturer's recommendation. Briefly, cells were lysed and lysates were incubated with HBV probe sets panel at 50-55° C. for 30 min then stored at −80° C. Signal amplification is achieved via sequential hybridization of PreAmplifier, Amplifier, and Label Probe. After adding Streptavidin phycoerythrin (SAPE) substrate, the signal is read using a FlexMap 3D (Luminex) instrument.

The next series deals with HBV DNA. As to the kind of experiment: HBV DNA in culture medium of HBV-infected PHH. Conditions: PHH, patient-derived HBV GT D, MOI 40, treatment from day 3, day 10 pi. An excerpt: FIG. 8: Establishment of dPCR assay for cccDNA quantification. […] A 3.2-kb, linearized plasmid HBV is used as a standard curve for relative quantification of HBV DNA by TaqMan-PCR. […] (B) Testing primer & PCR specificity and removal of excess RC-DNA. In contrast to TaqMan-PCR (relative quantification method), digital PCR (dPCR) is an absolute quantification method without the need of standard curve. […] First step—Testing primer and PCR specificity. Serum-derived HBV (contains RC-DNA, devoid of cccDNA) was used as a DNA template for dPCR using 2 sets of primers (for HBV core and cccDNA region) (Werle-Lapostolle et al., 2004). Samples were amplified by dPCR on QuantStudio 12K Flex Real-Time PCR System (AB); 4 subarrays (256 through-holes) were used for each sample. […] Second step—Removal of excess RC-DNA. PHH seeded in 96-well were infected with HBV. At day 6 pi, cell lysates were digested with Plasmid safe, ATP-dependent, DNAse (PSAD), T5 exonuclease, or, T5 exonuclease followed by EcoRI, for 1 hr at 37° C. Samples were amplified by dPCR using cccDNA primers on QuantStudio 12K Flex Real-Time PCR System (AB); 4 subarrays (256 through-holes) were used for each sample. […] Fresh medium and compound was replenished every 2 day. At day 10 pi, culture media were harvested and measured for HBV DNA, HBsAg, and HBeAg. Albumin was used as a surrogate of in vitro tox marker. Cells were lysed and treated with T5 exonuclease, cccDNA was then measured by dPCR on QuantStudio 12K Flex Real-Time PCR System (AB); 4 subarrays (256 through-holes) were used for each sample. […] Cells were treated with compounds at the indicated concentrations starting from day 3 post infection (patient-derived HBV, GT D). Fresh medium and compound was replenished every 2 day. Cells were harvested at day 10 pi; viral markers and albumin were measured from culture medium.
HBV from sera of CHB individuals were purified using OptiPrep™ (Axis-Shield, Norway) density gradient. Briefly, OptiPrep™ stock solution (60%) was diluted to 50% and 10% in PBS; equal volume of each solution was then added into SW41 tubes (BD Biosciences). Linear gradient was performed by placing the tubes on Gradient Master 108™ (Biocomp) at setting: 800, 25 rpm for 30″. Two hundred microliter (200 μl) of serum was overlaid on the top of gradient and samples were centrifuged at 100,000×g for 2 hours at 4° C. […] Fractions containing the peak of HBV DNA were pooled and used as virus inoculum for all infection experiments. All fractions were stored at −80° C. until used.
Fresh primary human hepatocytes (PXB-PHH) harvested from humanized mice (uPA/SCID mice)—herein called PHH—were obtained from PhoenixBio Co., Ltd (Japan).

The mark [2] stands for this setting: PHH, patient-derived HBV GT D, MOI 40, treatment from day 3, day 10 pi.

As to `O=C(NC1(CO)CCOCC1)c1c[nH]c2ncc(C3CC3)nc12` [compound 6], the IC50 in the series with HBeAg is 0.49 µM; in the series on HBsAg it was 0.75 µM; in the series on cccDNA, no less than 166 µM; in the series on pgRNA (Hepatitis B virus), 15.7 µM. Moreover, the IC50 at 7 days in series [1] is no less than 166 µM.
Regarding `CC(C)(O)C(CCO)NC(=O)c1c[nH]c2ncc(C3CC3)nc12` (stereo not drawn) [compound 3], the IC50 in the series with HBeAg is 3.58 µM; in the series on HBsAg it was 3.62 µM; in the series with cccDNA, 43.7 µM; in the series with pgRNA (Hepatitis B virus), 12.8 µM. For the same molecule, the IC50 at 7 days in series [1] was 33.4 µM.
Consider `CC(C)(CO)NC(=O)c1c[nH]c2ncc(C3CC3)nc12` [compound 1], for which the IC50 in the series with HBeAg was found to be 0.17 µM; in the series with HBsAg it was 0.17 µM; in the series with cccDNA, 52.7 µM; with pgRNA (Hepatitis B virus) it was 14.2 µM. Moreover, the IC50 at 7 days in series [1] stood at 18.7 µM.
Take `O=C(NC1(CO)CCCC1)c1c[nH]c2ncc(C3CC3)nc12` [compound 2]: the half-inhibitory concentration (IC50) with HBeAg was found to be 0.68 µM; in the series on HBsAg it was 0.68 µM; in the series with cccDNA, 30.1 µM. Besides, the IC50 at 7 days in series [1] stood at 24.2 µM.
Consider `CC(C)(O)C(C)(C)NC(=O)c1c[nH]c2ncc(C3CC3)nc12` [compound 9], for which the figures for the IC50 with HBeAg, with HBsAg and in the series with cccDNA were 0.68 µM, 0.51 µM and 49.2 µM, respectively. Moreover, the IC50 at 7 days in series [1] was 21.3 µM.
For `CC[C@@H](CO)NC(=O)c1c[nH]c2ncc(C3CC3)nc12` [compound 4], the IC50 was 0.68 µM in the series with HBeAg; 0.68 µM in the series with HBsAg; 63.7 µM with cccDNA; less than 10 µM with pgRNA (Hepatitis B virus); 6.93 µM in the series with pgRNA. Moreover, in series [1], the IC50 at 7 days came out at 48 µM.
With `C=C1[C@H](CO)[C@@H](O)C[C@@H]1n1cnc2c(=O)[nH]c(N)nc21` [entecavir, reference compound], the “effect on HBeAg (other viral markers)” value with HBeAg (setting [2]) was “no effect”. Besides, in the series with HBsAg (setting [2]), the “effect on HBsAg (other viral markers)” value is recorded as “no effect”. Besides, the “effect on cccDNA (other viral markers)” value with cccDNA (patient-derived HBV GT D, MOI 40, treatment from day 3, day 10 pi, dPCR) was “no effect”. In the series with HBV DNA, the “effect on HBV DNA” value was “highly potent”.
In the case of `C[C@@H](CO)NC(=O)c1c[nH]c2ncc(C3CC3)nc12` [compound 8], the IC50 with HBeAg is 2.29 µM; in the series on HBsAg it was 1.22 µM; in the series with cccDNA it was 30.8 µM. In addition, the IC50 at 7 days in series [1] was 31.9 µM.
Consider `C[C@H](CO)NC(=O)c1c[nH]c2ncc(C3CC3)nc12` [compound 5], for which the IC50 is 2.95 µM with HBeAg, 5.61 µM in the series on HBsAg, 160 µM in the series on cccDNA and no less than 100 µM in the series with pgRNA (Hepatitis B virus). Further, the IC50 at 7 days in series [1] was 135 µM.
